Results taken from the supplement of paper PMC10307832.

Tests used:
Experiment in all cases: relative viability (nuclei count vs DMSO), 5 days (fraction); higher = more cells survive
Neratinib + Decitabine = compound: CCOc1cc2ncc(C#N)c(Nc3ccc(OCc4ccccn4)c(Cl)c3)c2cc1NC(=O)/C=C/CN(C)C [Neratinib] + Nc1ncn([C@H]2C[C@H](O)[C@@H](CO)O2)c(=O)n1 [Decitabine] (partner 2 µM)
Method in brief: (§1)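 Each reported value is a median over duplicate plates. It expresses relative viability: treated-well nuclei count divided by vehicle-well nuclei count. Lung cancer cell lines in 1536-well plates were dosed by pin tool a day after seeding, alone with one drug or with a fixed anchor-drug dose plus five library-drug doses (not always all listed) in √10 steps, and nuclei were counted after 5 days.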

Neratinib + Crizotinib = compound: CCOc1cc2ncc(C#N)c(Nc3ccc(OCc4ccccn4)c(Cl)c3)c2cc1NC(=O)/C=C/CN(C)C [Neratinib] + C[C@@H](Oc1cc(-c2cnn(C3CCNCC3)c2)cnc1N)c1c(Cl)ccc(F)c1Cl [Crizotinib] (partner 1 µM)
Method in brief: as §1

Neratinib + Phenformin = compound: CCOc1cc2ncc(C#N)c(Nc3ccc(OCc4ccccn4)c(Cl)c3)c2cc1NC(=O)/C=C/CN(C)C [Neratinib] + N=C(N)NC(=N)NCCc1ccccc1 [Phenformin] (partner 250 µM)
Method in brief: as §1

Neratinib + Navitoclax = compound: CCOc1cc2ncc(C#N)c(Nc3ccc(OCc4ccccn4)c(Cl)c3)c2cc1NC(=O)/C=C/CN(C)C [Neratinib] + CC1(C)CCC(c2ccc(Cl)cc2)=C(CN2CCN(c3ccc(C(=O)NS(=O)(=O)c4ccc(N[C@H](CCN5CCOCC5)CSc5ccccc5)c(S(=O)(=O)C(F)(F)F)c4)cc3)CC2)C1 [Navitoclax] (partner 0.5 µM)
Method in brief: as §1

Cell Line	relative viability (Neratinib + Decitabine; first compound 0.01 µM)	relative viability (Neratinib + Decitabine; first compound 0.03162 µM)	relative viability (Neratinib + Decitabine; first compound 0.1 µM)	relative viability (Neratinib + Decitabine; first compound 0.3162 µM)	relative viability (Neratinib + Decitabine; first compound 1 µM)	relative viability (Neratinib + Crizotinib; first compound 0.01 µM)	relative viability (Neratinib + Crizotinib; first compound 0.03162 µM)	relative viability (Neratinib + Crizotinib; first compound 0.1 µM)	relative viability (Neratinib + Crizotinib; first compound 0.3162 µM)	relative viability (Neratinib + Crizotinib; first compound 1 µM)	relative viability (Neratinib + Phenformin; first compound 0.01 µM)	relative viability (Neratinib + Phenformin; first compound 0.03162 µM)	relative viability (Neratinib + Phenformin; first compound 0.1 µM)	relative viability (Neratinib + Phenformin; first compound 0.3162 µM)	relative viability (Neratinib + Phenformin; first compound 1 µM)	relative viability (Neratinib + Navitoclax; first compound 0.01 µM)	relative viability (Neratinib + Navitoclax; first compound 0.03162 µM)	relative viability (Neratinib + Navitoclax; first compound 0.1 µM)	relative viability (Neratinib + Navitoclax; first compound 0.3162 µM)	relative viability (Neratinib + Navitoclax; first compound 1 µM)
HCC-827	0.375	0.354	0.271	0.243	0.217	0.986	0.996	0.778	0.7	0.176	0.42	0.411	0.403	0.23	0.151	1.02	1.09	1	0.924	0.201
HOP-62	0.215	0.222	0.198		0.215	1.07	1.05	0.806	0.932	0.958	0.716	0.702	0.621	0.585	0.617		1.07	1.1	0.996	1.1
LC-2-ad	0.931	0.815	0.72	0.7		0.456	0.457	0.41	0.386	0.294		0.578	0.557	0.421	0.45	0.519	0.398	0.411	0.315	0.135
LCLC-97TM1	0.258	0.251	0.276		0.215	0.344	0.33	0.314	0.242	0.136	0.461	0.462	0.379	0.29	0.177	0.402	0.381	0.633	0.511	0.294
LK-2	0.321	0.372	0.305	0.225	0.24	0.209	0.191	0.206	0.211	0.253	0.467	0.418	0.518	0.287	0.318	0.944	0.97	0.859	0.639	0.342
LOU-NH91	0.794	0.775	0.68	0.673	0.604	0.735	0.669	0.588	0.501	0.479	0.664	0.634	0.525	0.426	0.412	0.682	0.582	0.517	0.374	0.279
LU99A		1.12	0.752	0.952	0.578	0.513	0.586	0.472	0.527	0.32	0.92	0.905	0.87	0.801	0.683		0.881	0.708	0.799	0.359
LXF-289	0.382	0.396	0.39	0.349	0.421	0.879	0.871	0.75	0.821	0.752	0.533	0.537	0.461	0.476	0.435	0.975	0.972	0.923		0.878
NCI-H23	0.325	0.298	0.289	0.404	0.264	0.697	0.572	0.413	0.486	0.27	0.959	0.905	0.827	0.731	0.597	0.745	1.12	0.694	0.838	0.528
NCI-H322M	0.678	0.643	0.646	0.558	0.39		1.02	0.791	0.659	0.291	0.762	0.671	0.671	0.376	0.283	1.18	1.17	0.558	0.701	0.627
NCI-H441	0.255	0.246	0.235	0.209	0.2	0.73	0.74	0.587	0.606	0.268	1.04	0.82	0.94	0.705	0.45	0.767	0.571	0.707	0.624	0.173
NCI-H460	0.559	0.527	0.522	0.459	0.449	1.2	0.743		0.641	0.355	0.58	0.675	0.414	0.491	0.341	1.37	1.3		1.11	0.441
NCI-H520	0.604	0.547			0.46	0.908	0.929	0.773	0.689	0.429	0.599	0.78	0.53	0.496	0.287	1.1	1.42	0.965	1.03	0.779
NCI-H596	1.88	1.1	1	0.986	0.863	0.944	1.09	1.04	0.903	0.861	0.754	0.895	0.75	0.695	0.562	0.998	1.01	0.954	1.04	0.787
NCI-H647	0.438	0.453	0.364	0.358	0.371	1.21	0.978	0.852	0.835	0.427	0.574		0.398	0.368	0.113	1.14	1.41	1.05	1.12	0.383
NCI-H727	0.897	0.846		0.796	0.717	0.844	1.02		0.597	0.423	0.521	0.597	0.294	0.4	0.595	0.446	0.443		0.4	0.267
NCI-H838	0.459	0.514	0.456	0.463	0.464	0.995	0.812	0.833	0.67	0.476	0.63	0.669	0.579	0.433	0.234	1.21	1.22	0.972	0.995	0.588
